# According to patent US4874780A, “Anticancer compounds” (Norsk Hydro a.s., priority 1987, dated 1989):
# Like-named read-outs stand apart in the source and are kept apart here.
# Tests used:
# [1] = Concentration of BG or BG-d1 in blood samples after iv injection (HPLC); format: in vivo, male Wistar rats
# Experimental: Measurement of concentration of 4,6-O-benzylidene-D-glucose (BG) or 4,6-O-deuterobenzylidene-d1 -D-glucose (BG-d1) in blood samples (Table 5).
# (§1) Blood samples were taken from male Wistar rats immediately before and at several intervals after intravenous injection of BG or BG-d1. Blood serum was separated by centrifugation. Equal amounts of blood serum and HPLC-grade acetonitrile were mixed and centrifuged at 13,000 rpm (15,000×g) for 5 minutes. Samples were then analyzed for BG or BG-d1 content by High Performance Liquid Chromatography (HPLC). Samples were placed in an autosampler programmed for replicate injections of […] each onto a 4.6×250 mm LC18 HPLC column. The column was eluted with 45% aqueous methanol delivered at 1 ml/min. BG or BG-d1 were detected by using a spectrofluorometer set at excitation and emission wavelengths of 255 and 283 nm, respectively. The slit width used was 10 nm. Quantitation of the amount of BG or BG-d1 in serum samples was performed with an electronic integrator calibrated with standard solutions of BG or BG-d1 in the mobile phase (Pettersen et al., Anticancer Res., 6; 147-152, 1986).
# We have compared the metabolism in rats of BG as well as of deuterated BG (BG-d1). In Table 5 the serum concentration of BG or BG-d1 is shown at various time points after a single iv injection of each drug, respectively.
# NHIK 3025 cells [2] = assay: Cell survival (colony formation) after 24 hr treatment; format: cell-based; settings: Homo sapiens, NHIK3025, 24 h
# From the text: (§2) Human cells of the established line NHIK 3025, originating from a cervical carcinoma in situ (Nordbye, K., and Oftebro, R. Exp. Cell Res., 58: 458, 1969), Oftebro, R., and Nordbye, K., Exp. Cell Res., 58: 459-460, 1969) were cultivated in Medium E2a (Puck, T.T. et al., J. Exp. Med., 106:145-165, 1957) supplemented with 20% human (prepared at the laboratory) and 10% horse serum (Grand Island Biological Co.). The cells are routinely grown as monolayers in tissue culture flasks.
# (§3) The cells were kept in continuous exponential growth by frequent reculturing, i.e., every second and third day, and synchronized cell populations with a high degree of synchrony were obtained by repeated selection of mitotic cells (Pettersen, E. O. et al, Cell Tissue Kinet., 10: 511-522, 1977). During the synchronization procedure, the cells were kept in Medium E2a, and the whole experiment took place in a walk-in incubator at 37° C. Under growth conditions as used here, the NHIK 3025 cells have a medium cell-cycle time of ~18 hr, with medium G1, S1 and G2 durations of ~7, ~8, and ~2.5 hr, respectively.
# For measurement of cell survival, appropriate numbers of cells were seeded in plastic Petri dishes (.phi.=5 cm). The number of cells seeded into each dish was adjusted such that the number of surviving cells would be approximately 150 per dish. While exponentially growing (asynchronous) cells were trypsinized before seeding, synchronized cells were seeded immediately after selection. After about 2 hr, the cells had attached to the bottom of the dishes, and the treatment was started by replacing the medium with medium containing the appropriate drug concentration. After the desired time of treatment, the drug-containing medium was removed, and fresh medium was added. The dishes were rinsed once with the same medium as was to be added on addition or removal of drug. After 10 to 12 days at 37° C. in a CO2 incubator, the cells were fixed in ethanol and stained with methylene blue before the colonies were counted.
# The cytotoxic effect of benzaldehyde and of deuterobenzaldehyde-d1 was tested on asynchronous, exponentially growing NHIK 3025 cells by counting the number of cells able to form colonies after 24 hr treatment in Petri dishes. In Table 1 the results represent 2 different, independent experiments where the numbers give the mean fraction of surviving cells from 10 parallel dishes (± standard error).
# Fraction of cells surviving 24 hr treatment with benzaldehyde or deuterobenzaldehyde - d1 in Petri dishes. (The values represent the mean±standard error from 10 different dishes.)
# NHIK 3025 cells [3] = assay: Protein synthesis rate ((3H)valine incorporation); format: cell-based, human; settings: 3.2 mM
# From the text: as §2, §3
# The rate of protein synthesis was calculated as described previously (Ronning, O. W. et al., J. Cell Physiol., 107: 47-57, 1981). Briefly, cellular protein was labeled to saturation during a 2-day preincubation with (^14 C)valine of constant specific radioactivity (0.5 Ci/mol) prior to the experiment. This was achieved by using a high concentration of valine so that the dilution of (^14 C)valine by intracellular valine and by proteolytically generated valine will be negligible (Ronning, O. W., et al. Exp. Cell Res. 123: 63-72, 1979), thus keeping the specific radioactivity at a constant level. The rate of protein synthesis was calculated from the incorporation of (3H)valine of constant specific activity. The incorporation measurements were related to the total of (^14 C) radioactivity in protein at the beginning of the respective measurement periods and expressed as the percentage per hr (Ronning, O. W. et al, J. Cell, Physiol. 107: 47-57, 1981).
# […] The last measurements were done to test the reversibility of the drugs. Drug concentration: 3.2 mM.
# NHIK 3025 cells [4] = settings: Pettersen et al. 1983, cited from earlier work
# [5] = BG or BG-d1 metabolites in blood samples after iv injection (HPLC peak height); format: in vivo, male Wistar rats; settings: rat
# Experimental: as §1
# Measurement of BG or BG-d1 metabolites in blood samples (Table 6)
# HPLC of blood samples was performed as indicated above. Relative amounts of BG- or BG-d1 -metabolite were determined by peak height analysis. The peak height from the electronic integrator (in microvolts) of samples taken 30 minutes after iv injection of BG, or 60 minutes after iv injection of BG-d1 were normalized to 1. All other metabolite peaks were compared with these values.
# At the same time as BG or BG-d1 metabolism was being determined, a separate metabolite peak appeared in HPLC chromatograms. The increase in BG- and BG-d1 -metabolite and subsequent clearance was measured.
# Stability in vitro = format: in vitro ADME
# NHIK 3025 cells [6] = settings: Pettersen et al. 1983, cited from earlier work; remark: listed apart in the source
# NHIK 3025 cells [7] = assay: Duration of cell cycle-time of synchronized cells; format: cell-based, human; settings: 8 hr treatment
# From the text: as §2, §3
# (§4) For detection of the drug effects on cell-cycle kinetics, the same methods were used as described previously (Lindmo, T., and Pettersen, E. O., Cell Tissue Kinet., 12: 43-57, 1979), (Pettersen, E. O. et al, Eur. J. Cancer Clin. Oncol., 19: 507-514; 1983), (Ronning, O.W. et al., J. Cell. Physiol., 109: 411-419, 1981). Briefly, the selected mitotic cells were seeded into 8 tissue culture flasks (25 sq cm) 5000 cells per flask. The cells divided within 1 hr and attached as doublets to the bottom of the flasks. […] Analyses of durations of mitosis were performed from these observations (Table 4).
# This is shown by the data in Table 3, where we have used synchronized cells treated over an 8 hr period starting 2 hr after mitotic selection, i.e. when the cells were in early Gl.
# NHIK 3025 cells [8] = assay: Duration of mitosis of synchronized cells; format: cell-based, human; settings: 3.2 mM during mitosis
# From the text: as §2, §3, §4
# This effect is probably directly related to the aldehyde group (Pettersen et al. Cancer Res. 45: 2085-2091, 1985). If the deuterated aldehyde group induces different biological effects from the undeuterated one it is therefore good reason to expect this to be expressed as a difference in effect on cells in mitosis. In Table 4 results are shown on prolongation of mitosis of synchronized cells treated with benzaldehyde or deuterobenzaldehyde-d1 during mitosis. The numbers in the table represent the percentage of the cells having a duration of mitosis below 1 hr (which is normal for untreated cells) or above the number of hours indicated on top of each column.
# NHIK 3025 cells [9] = settings: previous studies; cited from earlier work
# NHIK 3025 cells [10] = settings: previous studies (Pettersen et al. 1983), cited from earlier work
# mucous membranes = settings: pure form; cited from earlier work
# [11] = read-out: Cell survival of cells treated for 24 hr
# [12] = read-out: Fraction of cells surviving 24 hr treatment
compound,measurement,setting,value
"OC1O[C@@H]2COC(c3ccccc3)O[C@H]2[C@H](O)[C@H]1O (stereo partly drawn) [BG, 4,6-O-benzylidene-D-glucose]",half-life in vivo (in words),[1]; in vivo,relatively short half-life in vivo
same,Amount of unmetabolized drug in blood samples,"[1]; rat, iv, 60 minutes, N.F. = Not Found",N.F.
same,concentration at 0 h,"[1]; serum, rat, iv, 0 minutes (estimated), read-out: Amount of unmetabolized drug in blood samples",345 µM
same,concentration at 2 min,"[1]; serum, rat, iv, 2 minutes, read-out: Amount of unmetabolized drug in blood samples",230 ± 16 µM
same,concentration at 5 min,"[1]; serum, rat, iv, 5 minutes, read-out: Amount of unmetabolized drug in blood samples",110 ± 10 µM
same,concentration at 10 min,"[1]; serum, rat, iv, 10 minutes, read-out: Amount of unmetabolized drug in blood samples",96 ± 15 µM
same,concentration at 0.25 h,"[1]; serum, rat, iv, 15 minutes, read-out: Amount of unmetabolized drug in blood samples",66 ± 18 µM
same,concentration at 20 min,"[1]; serum, rat, iv, 20 minutes, read-out: Amount of unmetabolized drug in blood samples",48 ± 11 µM
same,concentration at 25 min,"[1]; serum, rat, iv, 25 minutes, read-out: Amount of unmetabolized drug in blood samples",40 ± 5 µM
same,concentration at 0.5 h,"[1]; serum, rat, iv, 30 minutes, read-out: Amount of unmetabolized drug in blood samples",33 ± 8 µM
same,half-life,"[1]; serum, rat, iv, read-out: half-life in vivo",~5 min
same,viability at 6400 µM,NHIK 3025 cells [2]; [11],30 ± 5%
same,viability at 12800 µM,NHIK 3025 cells [2]; [11],0.78 ± 0.18%
same,Protein synthesis,"NHIK 3025 cells [3]; asynchronous cells, 3 hr treatment, pulse 0-1 hr, during treatment, Table 8, control 5.7 ± 0.5",2.9 ± 0.7 %/hr
same,Protein synthesis,"NHIK 3025 cells [3]; asynchronous cells, 3 hr treatment, pulse 2-3 hr, during treatment, Table 8, control 5.7 ± 0.5",2.9 ± 0.1 %/hr
same,Protein synthesis,"NHIK 3025 cells [3]; synchronized cells, 22 hr treatment, pulse 21-22 hr, during treatment, Table 8, control 5.3 ± 0.2",4.8 ± 0.5 %/hr
same,Protein synthesis,"NHIK 3025 cells [3]; synchronized cells, 22 hr treatment, pulse 23-24 hr, after treatment, Table 8, control 5.3 ± 0.2",5.5 ± 0.1 %/hr
same,Protein synthesis inhibition (in words),NHIK 3025 cells [4],only protein synthesis inhibition is known to appear during treatment with BG
same,Relative amount of metabolite,"[5]; 30 minutes after iv injection, BG sample normalized to 1",1.00
same,Relative amount of metabolite,"[5]; 45 minutes after iv injection, maximum peak = 1",0.927 ± 0.008
same,Period over which compound is stable in vitro,Stability in vitro,at least 24 hr
O=Cc1ccccc1 [Benzaldehyde],viability at 3200 µM,NHIK 3025 cells [2]; [12],64 ± 18%
same,viability at 12800 µM,NHIK 3025 cells [2]; [12],2.4 ± 0.8%
same,Cell cycle progression (in words),NHIK 3025 cells [6],inhibits cell cycle progression
same,Cell cycle progression (in words),NHIK 3025 cells [6]; listed as benzaldehyde,cell-cycle progression is reduced
same,Protein synthesis,"NHIK 3025 cells [3]; 4 hr treatment, pulse 0-1, during treatment, Table 2, control 6.8 ± 0.9",3.7 ± 0.3 %/hr
same,Protein synthesis,"NHIK 3025 cells [3]; 4 hr treatment, pulse 4-5, after treatment, Table 2, control 6.8 ± 0.9",5.1 ± 0.3 %/hr
same,Protein synthesis,"NHIK 3025 cells [3]; 4 hr treatment, pulse 5-6, after treatment, Table 2, control 6.8 ± 0.9",6.7 ± 0.5 %/hr
same,Prolongation,"NHIK 3025 cells [7]; 2 mM, versus control 1",7.9%
same,Duration of the part of the cell cycle starting 2 hr after selection,"NHIK 3025 cells [7]; 2 mM, control 1 16.5",17.8
same,Prolongation,"NHIK 3025 cells [7]; 2.5 mM, versus control 2",63.7%
same,Duration of the part of the cell cycle starting 2 hr after selection,"NHIK 3025 cells [7]; 2.5 mM, control 2 16.8",27.5
same,Percentage of cells with duration of mitosis >4 h,NHIK 3025 cells [8],49%
same,Percentage of cells with duration of mitosis >5 h,NHIK 3025 cells [8],35%
same,Percentage of cells with duration of mitosis >6 h,NHIK 3025 cells [8],21%
same,Percentage of cells with duration of mitosis >3 h,NHIK 3025 cells [8]; control 2%,70%
same,Percentage of cells with duration of mitosis >2 h,NHIK 3025 cells [8]; control 4%,87%
same,Percentage of cells with duration of mitosis >1 h,NHIK 3025 cells [8]; control 17%,95%
same,Percentage of cells with duration of mitosis <1 h,NHIK 3025 cells [8]; control 83%,5%
same,Protein synthesis inhibition (in words),NHIK 3025 cells [4],inhibit protein sythesis in a reversible manner
same,Protein synthesis inhibition (in words),NHIK 3025 cells [4]; listed as benzaldehyde,protein synthesis inhibition
same,Inactivation of cells treated during mitosis (in words),NHIK 3025 cells [9],inactivated efficiently by benzaldehyde
same,Inhibition during mitosis (in words),NHIK 3025 cells [10],induces specific inhibition during mitosis
same,Inhibition during mitosis (in words),NHIK 3025 cells [10]; listed as benzaldehyde,specific prolongation of mitosis
same,Irritating effect on mucous membranes,mucous membranes,strongly irritating effect on mucous membranes
